Reference: paper PMC6753678, “Fueling Open Innovation for Malaria Transmission-Blocking Drugs: Hundreds of Molecules Targeting Early Parasite Mosquito Stages” (Frontiers in Microbiology, 2019)
Where two headings read alike, the source gives them in different places.

Legend:
[1] = system: 3D7-strain P. falciparum asexual parasites; assay: P. falciparum asexual growth inhibition assay (Pf GIA); format: cell-based, Plasmodium falciparum; conditions: dose response confirmation; read-out: Pf asexual growth inhibition assays IC50
Procedure, shortened: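 Steps: seed parasites (0.25% parasitemia, 2% hematocrit) onto compound dilutions; incubate 72 h at 37°C, 5% O2/5% CO2; freeze at −70°C and thaw; add LDH reaction mix, read A650 after 10 min. Percent growth inhibition derived from chloroquine and DMSO controls, averaged over three biological replicates.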

HepG2 cells = assay: HepG2 cytotoxicity assay; conditions: for IC50: read-out: HepG2 cytotoxicity assay IC50, dose response confirmation; for Pb ODA (this manuscript) HepG2 cytoxicity: HepG2 cytotoxicity listed with the Pb ODA data set (this manuscript)
Procedure, shortened: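 Percent inhibition derived from fluorescent viability readout, normalised to DMSO (negative) and 50 μM doxorubicin (positive). Compound incubation lasted 48 h at 37°C, 5% CO2, with 2,500 HepG2 cells/well in MEM plus 10% FBS and 1% NEAA.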

[2] = system: P. berghei ookinete development; conditions: for % inhibition, Replicate A / % inhibition, Replicate B: primary screen at 1 μM
[3] = HepG2 values of the three screens unified
[4] = read-out: Pb ODA IC50, this manuscript
[5] = read-out: Pb Ookinete development assay IC50, dose response confirmation
[6] = unified HepG2 value across the three screens
[7] = read-out: Pb ODA (this manuscript) IC50, P. berghei ookinete development assay, this manuscript

SMILES	IC50 [1] [nM]	HepG2 cytoxicity (Pb ODA, this manuscript) (HepG2 cells) [µM]	Unified cytotox (HepG2 cells; [3]) [µM]	IC50 (HepG2 cells) [nM]	Is compound selective in assay? Pb ODA active? ([2]; 1: YES, 0: NO)	% inhibition, Replicate A [2] [%]	% inhibition, Replicate B [2] [%]	IC50 [2, 4] [nM]	IC50 [2, 5] [nM]	Unified cytotox (HepG2 cells; [6]) [µM]	Pb ODA (this manuscript) HepG2 cytoxicity (HepG2 cells) [µM]	Is compound selective in assay? Pb ODA active? [2]	IC50 [2, 7] [nM]
Nc1nc(N)c2c(ccc3c2ccn3Cc2ccc3c(c2)OCO3)n1 [TCMDC-137808]	< 0.2	0.0324	0.0324	32.4	0 (0: NO)	57.79	75.32	450	447				
Cc1[nH]c2ccc(-c3ccccc3)cc2c(=O)c1Br [TCMDC-135426]	136			100000	1 (1: YES)	84.59	99.51	1250	1250	100.00			
Cl.O=C1CSc2ccc(CNC3CCN(CCc4c(Cl)cnc5ccc(Cl)cc45)CC3)nc2N1 [TCMDC-141959]	320	17.78	17.78	17800	0 (0: NO)	64.42	30.41	4220	4220				
COc1ccc(C23Oc4cc(OC)cc(OC)c4C2(O)C2(CC3c3ccccc3)SCCCS2)cc1 (centres unmarked) [TCMDC-132098]	712			100000	1 (1: YES)	104.91	114.13	400	401	100.00			
COc1nc2c(CCN3CCC(NCc4ccc5c(n4)NC(=O)CO5)CC3)c(Cl)cnc2cc1F.Cl [TCMDC-135766]	2740			42700		65.11	58.19		3720		42.66	1 (key: 1: YES; 0: NO)	3720
COc1ccc2ncc(F)c(CCN3CC[C@H](NCc4cc(C#N)c5c(c4)OCCO5)[C@H](O)C3)c2c1 [TCMDC-136207]	795			38000	1 (1: YES)	67.99	58.62	750	747	38.02			
CCOC(=O)c1c(-c2ccccc2)nc2c(sc3ccccc32)c1O [TCMDC-131540]	3870			100000	1 (1: YES)	101.19	85.53	1310	1310	100.00			
O=C1C(c2ccccc2)=C(Nc2cccc(OC(F)(F)C(F)F)c2)c2ccccc21 [TCMDC-125498]	68			100000		29.02	52.36		1380		100.00	1 (key: 1: YES; 0: NO)	1380
Cc1ccc(Cn2c(N3CCC(C(=O)NCc4ccccn4)CC3)nc3ccccc32)cc1 [TCMDC-125442]	469			69200	1 (1: YES)	48.51	58.27	1180	1180	69.18			
